Data as given in BindingDB's records for doi:10.1016/j.bmc.2007.04.026 (University of Ferrara, 2007).
Where a SMILES comes first, the peptide text is derived from it. [ ]: non-standard residue; d: D form. ξ: configuration not given here. Phe(4-F) = N[C@@H](Cc1ccc(F)cc1)C(=O)O; Aib = CC(C)(N)C(=O)O; ξDap = NCC(N)C(=O)O

Experiments:
Nociceptin receptor [1] = target: Nociceptin receptor (Cavia porcellus, UniProt P47748); assay: Antagonist activity at NOP receptor in Albino guinea pig ileum assessed as effect on electrically stimulated contractions
Nociceptin receptor [2] = target: Nociceptin receptor (Mus musculus, UniProt P35377); assay: Antagonist activity at NOP receptor in Swiss mouse vas deferens […]
Nociceptin receptor [3] = target: Nociceptin receptor (Rattus norvegicus, UniProt P35370); assay: Antagonist activity at NOP receptor in Sprague-Dawley rat vas deferens assessed as effect on electrically stimulated contractions
Chain of Nociceptin receptor (Rattus norvegicus, UniProt P35370) (P35370 whole entry): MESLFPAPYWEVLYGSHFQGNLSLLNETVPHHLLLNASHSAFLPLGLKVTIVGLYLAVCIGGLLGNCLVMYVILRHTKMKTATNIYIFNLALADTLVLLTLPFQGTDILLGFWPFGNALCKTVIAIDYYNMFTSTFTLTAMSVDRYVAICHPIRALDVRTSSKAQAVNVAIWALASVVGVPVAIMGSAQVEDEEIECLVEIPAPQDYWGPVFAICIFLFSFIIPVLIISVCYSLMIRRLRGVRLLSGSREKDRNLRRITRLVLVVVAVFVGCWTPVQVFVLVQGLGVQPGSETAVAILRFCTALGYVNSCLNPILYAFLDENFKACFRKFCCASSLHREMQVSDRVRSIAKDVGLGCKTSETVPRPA

Chain of Nociceptin receptor (Mus musculus, UniProt P35377) (P35377 whole entry): as the sequence (P35370 whole entry) above, with Y9F, S335A counted along it
Chain of Nociceptin receptor (Cavia porcellus, UniProt P47748) (P47748 whole entry): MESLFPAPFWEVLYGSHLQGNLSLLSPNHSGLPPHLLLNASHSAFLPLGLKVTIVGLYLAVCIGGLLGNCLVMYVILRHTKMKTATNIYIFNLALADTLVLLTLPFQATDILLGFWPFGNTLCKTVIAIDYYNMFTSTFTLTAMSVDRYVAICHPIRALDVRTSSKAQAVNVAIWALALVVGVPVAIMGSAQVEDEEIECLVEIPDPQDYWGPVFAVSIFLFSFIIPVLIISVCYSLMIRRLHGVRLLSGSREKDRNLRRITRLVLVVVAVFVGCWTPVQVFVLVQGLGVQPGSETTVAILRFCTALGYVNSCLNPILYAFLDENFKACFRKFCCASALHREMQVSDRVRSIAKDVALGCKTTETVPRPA

**Q.** For `C[C@H](NC(=O)[C@H](CO)NC(=O)[C@H](CCCCN)NC(=O)[C@H](CCCN=C(N)N)NC(=O)C(C)(C)NC(=O)CNC(=O)[C@@H](NC(=O)[C@H](Cc1ccc(F)cc1)NC(=O)CNC(=O)C(CN)NC(=O)[C@@H](N)Cc1ccccc1)[C@@H](C)O)C(=O)N[C@@H](CCCN=C(N)N)C(=O)N[C@@H](CCCCN)C(=O)N[C@@H](CCCN=C(N)N)C(=O)N[C@@H](CCCCN)C(=O)N[C@@H](CC(N)=O)C(=O)N[C@@H](CCC(N)=O)C(N)=O` (stereo partly drawn) (H-F[ξDap]G[Phe(4-F)]TG[Aib]RKSARKRKNQ-NH2), which Kd (Nociceptin receptor [1]) is on record?
**A.** 0.316 nM

**Q.** What about the Kd (Nociceptin receptor [2]) of the same compound?
**A.** 0.794 nM

**Q.** What about the Kd (Nociceptin receptor [3]) of the same compound?
**A.** 0.603 nM
